Patent US11613527B2, “Enzyme inhibitors” (KalVista Pharmaceuticals Limited, priority 2019, dated 2023)
In brackets after ≈: the same amount, converted by molar mass.

Columns and labels:
[1] = molecular target: Human plasma kallikrein (Homo sapiens (Human), UniProt P03952); test: Determination of the IC50 for plasma kallikrein (fluorogenic substrate H-DPro-Phe-Arg-AFC); type: biochemical; details: class symbols A-D, read-out: IC50 (human PKal)
Summary of the method: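 Enzyme from a commercial source was incubated at 25° C. with H-DPro-Phe-Arg-AFC substrate and a range of test compound concentrations. Residual activity was taken as the initial reaction rate, followed by absorbance change at 410 nm, and IC50 values were derived from it.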

[2] = molecular target: Human KLK1 (Homo sapiens (Human), UniProt P06870); test: Determination of the IC50 for KLK1 (fluorogenic substrate H-DVal-Leu-Arg-AFC); type: biochemical
Summary of the method: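 Human KLK1 incubated at 25° C. with fluorogenic substrate H-DVal-Leu-Arg-AFC and a range of test compound concentrations. Residual activity taken as initial reaction rate from absorbance change at 410 nm; IC50 derived from these rates.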

[3] = molecular target: Human FXIa (Homo sapiens (Human), UniProt P03951); test: Determination of the % inhibition for FXIa (fluorogenic substrate Z-Gly-Pro-Arg-AFC; 40 μM or IC50); type: biochemical
Summary of the method: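 Human FXIa incubated at 25 °C with fluorogenic substrate Z-Gly-Pro-Arg-AFC and test compound at 40 μM for % inhibition, or a concentration series for IC50. Residual activity taken as initial rate from absorbance change at 410 nm.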

[4] = Solubility after 24 hrs in Fasted State Simulated Intestinal Fluid (FaSSIF); type: physicochemical; details: Fasted State Simulated Intestinal Fluid (FaSSIF), thermodynamic from solid, 24 hrs at 37° C., nominal concentration 1 mg/mL (as free base)
Method: Selected compounds were further screened for solubility in Fasted State Simulated Intestinal Fluid (FaSSIF).
Approximately 1 mg of test compound is accurately weighed into a 2 mL vial. Volumes of the FaSSIF solution (pre-heated to 37° C.) were added to a vial to give a nominal concentration of 1 mg/mL (as free base). The FaSSIF solution was prepared on the day of use. The samples were vortexed before being placed in a Titramax 1000 shaker for 24 hrs at 37° C. and approximately 500 rpm. The samples were transferred to eppendorf tubes and centrifuged at 15,000 g (r.c.f.) for 10 min at 37° C. and analysed for concentration of test compound by LCMS.

[5] = Pharmacokinetics following a single oral dose in male Sprague-Dawley rats; type: in vivo; details: rat, nominal 5 mg/kg in 10% DMSO/10% cremophor/80% SWFI, plasma
Method: Pharmacokinetic studies of the compounds in Table 14 were performed to assess the pharmacokinetics following a single oral dose in male Sprague-Dawley rats. Two rats were given a single po dose of 5 mL/kg of a nominal 1 mg/mL (5 mg/kg) composition of test compound in 10% DMSO/10% cremophor/80% SWFI vehicle. Following dosing, blood samples were collected over a period of […]. Sample times were 5, 15 and 30 minutes then 1, 2, 4, 6, 8 and 12 hours. Following collection, blood samples were centrifuged and the plasma fraction analysed for concentration of test compound by LCMS.

Sequence of Human FXIa (P03951 388-625): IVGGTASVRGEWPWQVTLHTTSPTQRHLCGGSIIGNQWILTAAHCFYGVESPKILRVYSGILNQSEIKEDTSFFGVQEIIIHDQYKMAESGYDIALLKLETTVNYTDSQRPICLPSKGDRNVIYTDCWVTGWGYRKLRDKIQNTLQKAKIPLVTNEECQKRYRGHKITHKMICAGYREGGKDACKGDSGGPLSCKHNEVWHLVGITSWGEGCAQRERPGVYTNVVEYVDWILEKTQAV
Sequence of Human FXIa (P03951 19-387 partner): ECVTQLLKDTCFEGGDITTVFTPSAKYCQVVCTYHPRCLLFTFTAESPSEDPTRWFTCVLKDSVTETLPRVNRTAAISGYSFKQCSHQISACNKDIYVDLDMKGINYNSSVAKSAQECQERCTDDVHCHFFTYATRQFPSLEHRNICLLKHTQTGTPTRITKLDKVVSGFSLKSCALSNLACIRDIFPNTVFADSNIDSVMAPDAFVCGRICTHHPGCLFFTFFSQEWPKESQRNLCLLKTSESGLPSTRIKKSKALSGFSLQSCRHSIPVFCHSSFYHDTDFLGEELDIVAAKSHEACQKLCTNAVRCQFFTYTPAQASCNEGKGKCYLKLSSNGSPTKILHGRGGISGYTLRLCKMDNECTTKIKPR
Sequence of Human KLK1 (P06870 25-262): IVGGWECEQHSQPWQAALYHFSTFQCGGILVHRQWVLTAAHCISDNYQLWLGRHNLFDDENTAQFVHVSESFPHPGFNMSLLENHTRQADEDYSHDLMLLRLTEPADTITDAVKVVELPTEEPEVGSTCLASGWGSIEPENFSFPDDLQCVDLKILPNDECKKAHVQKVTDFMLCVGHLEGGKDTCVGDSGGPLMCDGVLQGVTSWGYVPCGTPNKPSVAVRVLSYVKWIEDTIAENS
Sequence of Human plasma kallikrein (P03952 391-638): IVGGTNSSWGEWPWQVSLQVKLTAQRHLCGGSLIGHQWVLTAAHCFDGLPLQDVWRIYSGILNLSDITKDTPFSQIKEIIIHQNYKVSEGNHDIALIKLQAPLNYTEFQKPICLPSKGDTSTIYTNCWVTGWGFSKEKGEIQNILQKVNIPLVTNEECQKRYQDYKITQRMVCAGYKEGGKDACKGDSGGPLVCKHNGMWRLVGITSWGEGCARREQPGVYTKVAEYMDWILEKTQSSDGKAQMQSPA
Sequence of Human plasma kallikrein (P03952 20-390 partner): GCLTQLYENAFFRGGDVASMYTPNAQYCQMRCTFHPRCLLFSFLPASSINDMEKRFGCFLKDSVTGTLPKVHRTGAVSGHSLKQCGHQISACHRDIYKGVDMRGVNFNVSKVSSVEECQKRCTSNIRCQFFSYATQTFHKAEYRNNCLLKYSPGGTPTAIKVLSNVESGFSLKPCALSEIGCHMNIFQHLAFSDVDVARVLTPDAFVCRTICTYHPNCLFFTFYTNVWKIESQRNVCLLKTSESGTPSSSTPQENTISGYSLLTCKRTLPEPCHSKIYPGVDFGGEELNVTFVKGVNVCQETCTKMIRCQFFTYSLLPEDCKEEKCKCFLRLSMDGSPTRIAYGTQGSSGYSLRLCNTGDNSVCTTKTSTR

| Structure (SMILES) | IC50 [1] | IC50 [2] | IC50 [3] | solubility at 24 h [4] | Cmax [5] |
| --- | --- | --- | --- | --- | --- |
| COCc1nn(Cc2ccc3c(c2)CNCC32CC2)cc1C(=O)NCc1c(-n2cc(C)nn2)ccc(OC)c1F [Example 127, 1-{2′,3′-dihydro-1′H-spiro[cyclopropane-1,4′-isoquinoline]-7′-ylmethyl}-N-{[2-fluoro-3-methoxy-6-(4-methyl-1,2,3-triazol-1-yl)phenyl]methyl}-3-(methoxymethyl)pyrazole-4-carboxamide] | < 0.01 µM | > 40 µM | > 40 µM | 810 µg/mL (≈ 1480 µM) | 9 ng/mL |
| COCc1nn(Cc2ccc3c(c2)CN(C)CC32CC2)cc1C(=O)NCc1c(-n2cc(C)nn2)ccc(OC)c1F [Example 126, N-{[2-fluoro-3-methoxy-6-(4-methyl-1,2,3-triazol-1-yl)phenyl]methyl}-3-(methoxymethyl)-1-{2′-methyl-1′,3′-dihydrospiro[cyclopropane-1,4′-isoquinoline]-7′-ylmethyl}pyrazole-4-carboxamide] | < 0.01 µM | > 40 µM | > 40 µM | 880 µg/mL (≈ 1570 µM) | 63 ng/mL |
| CCN1CCc2cc(Cn3cc(C(=O)NCc4c(-n5cc(C)nn5)ccc(OC)c4F)c(COC)n3)ccc2C1 [Example 38, 1-[(2-ethyl-3,4-dihydro-1H-isoquinolin-6-yl)methyl]-N-{[2-fluoro-3-methoxy-6-(4-methyl-1,2,3-triazol-1-yl)phenyl]methyl}-3-(methoxymethyl)pyrazole-4-carboxamide] | < 0.01 µM | > 40 µM | > 40 µM | 740 µg/mL (≈ 1350 µM) | 51 ng/mL |
| COCc1nn(Cc2ccc3c(c2)CN(C)CC3)cc1C(=O)NCc1c(-n2cnc(C(F)F)n2)ccc(OC)c1Cl [Example 156, N-({2-chloro-6-[3-(difluoromethyl)-1,2,4-triazol-1-yl]-3-methoxyphenyl}methyl)-3-(methoxymethyl)-1-[(2-methyl-3,4-dihydro-1H-isoquinolin-7-yl)methyl]pyrazole-4-carboxamide] | < 0.01 µM | > 40 µM | > 40 µM | > 1000 µg/mL |  |
| COCc1nn(Cc2ccc3c(c2)CN(C)CC3)cc1C(=O)NCc1c(-n2ccc(C#N)n2)ccc(OC)c1F [Example 11, N-{[6-(3-cyanopyrazol-1-yl)-2-fluoro-3-methoxyphenyl]methyl}-3-(methoxymethyl)-1-[(2-methyl-3,4-dihydro-1H-isoquinolin-7-yl)methyl]pyrazole-4-carboxamide] | < 0.01 µM | > 40 µM | 18.9 µM | 730 µg/mL (≈ 1340 µM) |  |
| COCc1nn(Cc2ccc3ncccc3c2)cc1C(=O)NCc1c(-n2cnnn2)ccc(OC)c1F [RC3, N-{[2-fluoro-3-methoxy-6-(1,2,3,4-tetrazol-1-yl)phenyl]methyl}-3-(methoxymethyl)-1-(quinolin-6-ylmethyl)pyrazole-4-carboxamide, reference compound] | < 0.01 µM | > 40 µM | 1.92 µM | 20 µg/mL (≈ 39.8 µM) |  |
| COCc1nn(Cc2ccc3c(c2)CN(C(C)C)CC3)cc1C(=O)NCc1c(-n2cc(C#N)cn2)ccc(OC)c1F [Example 30, N-{[6-(4-cyanopyrazol-1-yl)-2-fluoro-3-methoxyphenyl]methyl}-1-[(2-isopropyl-3,4-dihydro-1H-isoquinolin-7-yl)methyl]-3-(methoxymethyl)pyrazole-4-carboxamide] | < 0.01 µM | > 40 µM | 39.6 µM | 920 µg/mL (≈ 1610 µM) |  |
| COCc1nn(Cc2ccc3c(c2)CCN(C(C)C)C3)cc1C(=O)NCc1c(-n2cnc(C(F)F)n2)ccc(OC)c1F [Example 44, N-({6-[3-(difluoromethyl)-1,2,4-triazol-1-yl]-2-fluoro-3-methoxyphenyl}methyl)-1-[(2-isopropyl-3,4-dihydro-1H-isoquinolin-6-yl)methyl]-3-(methoxymethyl)pyrazole-4-carboxamide] | < 0.01 µM | > 40 µM | > 40 µM | > 1000 µg/mL |  |
| COCc1nn(Cc2ccc3c(c2)CCN(C)C3)cc1C(=O)NCc1c(-n2ccc(C#N)n2)ccc(OC)c1F [Example 43, N-{[6-(3-cyanopyrazol-1-yl)-2-fluoro-3-methoxyphenyl]methyl}-3-(methoxymethyl)-1-[(2-methyl-3,4-dihydro-1H-isoquinolin-6-yl)methyl]pyrazole-4-carboxamide] | < 0.01 µM | > 40 µM | 31.8 µM | 800 µg/mL (≈ 1470 µM) |  |
| COCc1nn(Cc2ccc3c(c2)CN(C(C)C)C3)cc1C(=O)NCc1c(-n2cc(C)nn2)ccc(OC)c1F [Example 55, N-{[2-Fluoro-3-methoxy-6-(4-methyl-1,2,3-triazol-1-yl)phenyl]methyl}-1-[(2-isopropyl-1,3-dihydroisoindol-5-yl)methyl]-3-(methoxymethyl)pyrazole-4-carboxamide] |  |  |  | > 1000 µg/mL | 136 ng/mL |
| COc1ccc(-n2cc(C)nn2)c(CNC(=O)c2cn(Cc3cc4n(n3)CCN(C)C4)nc2C(F)(F)F)c1F [Example 125, N-{[2-fluoro-3-methoxy-6-(4-methyl-1,2,3-triazol-1-yl)phenyl]methyl}-1-({5-methyl-4H,6H,7H-pyrazolo[1,5-a]pyrazin-2-yl}methyl)-3-(trifluoromethyl)pyrazole-4-carboxamide] | < 0.01 µM | > 40 µM | > 40 µM | 650 µg/mL (≈ 1190 µM) |  |

Other lines, results leading:

| IC50 [1] | IC50 [2] | IC50 [3] | solubility at 24 h [4] | Cmax [5] | Structure (SMILES) |
| --- | --- | --- | --- | --- | --- |
| < 0.01 µM | > 4 µM | > 4 µM | 820 µg/mL (≈ 1580 µM) | 154 ng/mL | COCc1nn(Cc2ccc3c(c2)CN(C)C3)cc1C(=O)NCc1c(-n2cc(C)nn2)ccc(OC)c1F [Example 54, N-{[2-fluoro-3-methoxy-6-(4-methyl-1,2,3-triazol-1-yl)phenyl]methyl}-3-(methoxymethyl)-1-[(2-methyl-1,3-dihydroisoindol-5-yl)methyl]pyrazole-4-carboxamide] |
| < 0.01 µM | > 40 µM | > 40 µM | 930 µg/mL (≈ 1630 µM) | 88 ng/mL | COCc1nn(Cc2ccc3c(c2)CN(C)CC3)cc1C(=O)NCc1c(-n2cc(C(F)F)nn2)ccc(OC)c1F [Example 1, N-({6-[4-(difluoromethyl)-1,2,3-triazol-1-yl]-2-fluoro-3-methoxyphenyl}methyl)-3-(methoxymethyl)-1-[(2-methyl-3,4-dihydro-1H-isoquinolin-7-yl)methyl]pyrazole-4-carboxamide] |
| < 0.01 µM | > 40 µM | > 40 µM | 820 µg/mL (≈ 1590 µM) |  | COc1ccc(-n2cc(C)nn2)c(CNC(=O)c2ccc(=O)n(Cc3ccc4c(c3)CN(C)CC4)c2)c1F [Example 160, N-{[2-fluoro-3-methoxy-6-(4-methyl-1,2,3-triazol-1-yl)phenyl]methyl}-1-[(2-methyl-3,4-dihydro-1H-isoquinolin-7-yl)methyl]-6-oxopyridine-3-carboxamide] |
| 0.01 to 0.03 µM | > 40 µM | > 40 µM | > 1000 µg/mL |  | COCc1nc(C(=O)NCc2c(-n3cc(C)nn3)ccc(OC)c2F)cn1Cc1ccc2c(c1)CN(C)CC2 [Example 148, N-{[2-fluoro-3-methoxy-6-(4-methyl-1,2,3-triazol-1-yl)phenyl]methyl}-2-(methoxymethyl)-1-[(2-methyl-3,4-dihydro-1H-isoquinolin-7-yl)methyl]imidazole-4-carboxamide] |
| < 0.01 µM | > 40 µM | > 40 µM | 1000 µg/mL (≈ 2040 µM) |  | COc1ccc(-n2cc(C)nn2)c(CNC(=O)c2cn(Cc3ccc4c(c3)CN(C)CC4)nn2)c1F [Example 152, N-{[2-fluoro-3-methoxy-6-(4-methyl-1,2,3-triazol-1-yl)phenyl]methyl}-1-[(2-methyl-3,4-dihydro-1H-isoquinolin-7-yl)methyl]-1,2,3-triazole-4-carboxamide] |
| < 0.01 µM | > 4 µM | > 4 µM | 880 µg/mL (≈ 1650 µM) |  | COCc1nn(Cc2ccc3c(c2)CCN(C)C3)cc1C(=O)NCc1c(-n2cc(C)nn2)ccc(OC)c1F [Example 36, N-{[2-fluoro-3-methoxy-6-(4-methyl-1,2,3-triazol-1-yl)phenyl]methyl}-3-(methoxymethyl)-1-[(2-methyl-3,4-dihydro-1H-isoquinolin-6-yl)methyl]pyrazole-4-carboxamide] |
